Laboratory results published in ChEMBL document CHEMBL5352435, “Recent two-year advances in anti-dengue small-molecule inhibitors” (Eur J Med Chem, 2022).
*1 amine or outer side, *2 acyl side, *3 side chain or, on linkers, in order; H or OH if unused. Where a SMILES comes first, the peptide text is derived from it. Bridges are numbered along the chain shown (N, C = ends). [ ]: non-standard residue; d: D form. The star is where a group is joined. hTyr(3S-OH,4S-OH,3'-OSO3H) = N[C@H](C(=O)O)[C@H](O)[C@@H](O)c1ccc(O)c(OS(=O)(=O)O)c1; Orn(4R-OH,5R-OH) = O=C([C@H](C[C@@H](O)[C@@H](O)N[*:3])N[*:1])[*:2]; Pro(3S-OH,4S-Me) = C[C@H]1CN[C@H](C(=O)O)[C@H]1O; X1 = CCCCCOc1ccc(-c2cc(-c3ccc(C(=O)*)cc3)no2)cc1; Gln(3R-OH) = NC(=O)C[C@@H](O)[C@H](N)C(=O)O; Hyp = O=C(O)[C@@H]1C[C@@H](O)CN1

Assays:
dengue virus type 2 [1] = test: Antiviral activity against DENV2 assessed as inhibition of viral replication; format: functional, organism-based
dengue virus type 2 [2] = test: Antiviral activity against DENV2 New Guinea C infected in golden hamster BHK-21 cells assessed as inhibition of plaque formation and measured after 22 hrs by crystal violet based plaque assay; format: functional, organism-based; details: BHK-21, 22 h
dengue virus type 3 [3] = test: Antiviral activity against DENV3 H87 assessed as reduction in viral RNA copy number preincubated for 1 hrs followed by infection in Vero cells and measured after 4 days by qRT-PCR analysis; format: functional, organism-based
dengue virus type 2 [4] = test: Antiviral activity against DENV2 infected in mouse assessed as survival rate at 30 mg/kg,po; format: functional
dengue virus type 1 = test: Antiviral activity against DENV1 assessed as inhibition of viral replication; format: functional, organism-based
dengue virus type 4 [5] = test: Antiviral activity against DENV4 assessed as inhibition of viral replication; format: functional, organism-based
dengue virus type 3 [6] = test: Antiviral activity against DENV3 assessed as inhibition of viral replication; format: functional, organism-based
dengue virus type 2 [7] = test: Antiviral activity against DENV2 New Guinea C expressing […] reporter plasmid infected in human Huh-7 cells assessed as inhibition of viral replication incubated for 48 hrs by nanoluciferase assay; format: functional, organism-based; details: Huh-7, 48 h
[8] = Cytotoxicity against human Huh-7 cells assessed as reduction in cell viability incubated for 48 hrs by AlamarBlue assay; format: toxicity, cell-based
Genome polyprotein [9] = biological target: T1, Genome polyprotein (dengue virus type 2, UniProt P29990); test: Inhibition of DENV2 NS2B/NS3 protease using Boc-Gly-Arg-Arg-MCA as substrate preincubated for 10 mins followed by substrate addition and measured after 60 mins by fluorescence microplate reader assay
dengue virus type 2 [10] = test: Antiviral activity against DENV2 infected in African green monkey Vero cells assessed as inhibition of viral titer preincubated for 16 hrs followed by viral infection and measured after 36 hrs by focus-forming assay; format: functional, organism-based
Nonstructural protein 3 = Nonstructural protein 3 (Zika virus, UniProt A0A024AXB9); test: Inhibition of recombinant ZIKV NS2B-NS3 protease using Bz-Nle-K-K-R-AMC as substrate incubated for 1 hr by fluorescence-based microplate reader assay
dengue virus type 4 [11] = test: Antiviral activity against DENV4 infected in Huh-7 cells assessed as inhibition of virus induced cytopathic effect incubated for 72 hrs by Hoechst 33342 staining based immunofluorescence assay; format: functional, organism-based; details: Huh-7, 72 h
Genome polyprotein [12] = biological target: T1, Genome polyprotein; test: Inhibition of DENV2 NS2B (48 to 100 residues)/NS3 (14 to 185 residues) protease expressed in Escherichia coli BL21 (DE3) using Bz-Nle-Lys-Arg-Arg-AMC as substrate preincubated for 30 mins followed by substrate addition by fluorescence assay
dengue virus type 2 [13] = test: Antiviral activity against DENV2 New Guinea C infected in Huh-7 cells assessed as inhibition of virus induced cytopathic effect incubated for 3 to 7 days by Neutral red assay; format: functional, organism-based
dengue virus type 2 [14] = test: Antiviral activity against DENV2 New Guinea C infected in monkey LLC-MK2 cells assessed as inhibition of plaque formation incubated for 72 hrs by plaque titration assay; format: functional, organism-based; details: LLC-MK2, 72 h
dengue virus type 2 [15] = test: Antiviral activity against DENV2 New Guinea C infected in golden hamster BHK-21 cells assessed as inhibition of plaque formation incubated for 4 days by crystal violet staining based microscopy; format: functional, organism-based; details: BHK-21, 96 h
[16] = Cytotoxicity against human Huh-7 cells assessed as reduction in cell viability incubated for 24 hrs by PrestoBlue assay; format: toxicity, cell-based
dengue virus type 2 [17] = test: Antiviral activity against DENV2 16681 infected in human Huh-7 cells assessed as inhibition of viral titer incubated for 24 hrs by focus-forming assay; format: functional, organism-based; details: Dengue virus, 16681, Huh-7, 24 h
dengue virus type 2 [18] = test: Antiviral activity against DENV2 Thailand/16681/1984 infected in golden hamster BHK-21 cells assessed as inhibition of virus induced cytopathic effect incubated for 4 to 5 days by microscopy; format: functional, organism-based

T1 sequence (P29990 1346-1475 limits assumed): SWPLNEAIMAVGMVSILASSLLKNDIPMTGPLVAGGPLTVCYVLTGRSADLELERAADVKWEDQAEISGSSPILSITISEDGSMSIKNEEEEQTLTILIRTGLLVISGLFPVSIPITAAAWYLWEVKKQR
T1 sequence (P29990 1476-2093 limits assumed): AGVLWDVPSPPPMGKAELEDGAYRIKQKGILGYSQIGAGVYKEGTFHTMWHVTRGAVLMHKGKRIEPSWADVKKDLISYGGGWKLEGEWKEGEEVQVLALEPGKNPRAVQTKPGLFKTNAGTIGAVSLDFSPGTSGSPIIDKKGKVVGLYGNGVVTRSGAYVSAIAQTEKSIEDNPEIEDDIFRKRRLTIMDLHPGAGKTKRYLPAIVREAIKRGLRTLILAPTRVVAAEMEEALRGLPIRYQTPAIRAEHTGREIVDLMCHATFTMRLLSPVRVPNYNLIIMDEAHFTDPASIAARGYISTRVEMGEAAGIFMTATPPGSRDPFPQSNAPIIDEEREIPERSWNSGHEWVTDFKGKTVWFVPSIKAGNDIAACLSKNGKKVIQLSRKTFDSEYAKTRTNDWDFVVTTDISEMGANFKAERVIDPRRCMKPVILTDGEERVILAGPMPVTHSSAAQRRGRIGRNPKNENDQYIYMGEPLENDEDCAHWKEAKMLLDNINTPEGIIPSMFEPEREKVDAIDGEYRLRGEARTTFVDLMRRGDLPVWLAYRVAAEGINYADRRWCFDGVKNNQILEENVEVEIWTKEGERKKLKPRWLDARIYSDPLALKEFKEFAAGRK
Nonstructural protein 3, sequence (A0A024AXB9 whole entry): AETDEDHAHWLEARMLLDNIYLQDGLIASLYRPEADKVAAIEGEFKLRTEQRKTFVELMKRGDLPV

CC(C)(C)[Si](C)(C)Oc1ccc([C@H]2N(Nc3ccc([N+](=O)[O-])cc3)C(=O)[C@@H]3Cc4ccccc4N32)cc1
EC50 (dengue virus type 2 [1]): 4.79 µM

Cc1ccc(C(=O)Nc2ccc(S(=O)(=O)O)c3cc(S(=O)(=O)O)cc(S(=O)(=O)O)c23)cc1NC(=O)c1cccc(NC(=O)Nc2cccc(C(=O)Nc3cc(C(=O)Nc4ccc(S(=O)(=O)O)c5cc(S(=O)(=O)O)cc(S(=O)(=O)O)c45)ccc3C)c2)c1 [SURAMIN HEXASODIUM]
EC50 (dengue virus type 2 [2]): 0.35 µM

COc1cc([C@H]2Oc3cc([C@H]4Oc5cc(O)cc(O)c5C(=O)[C@@H]4O)ccc3O[C@@H]2CO)ccc1O [SILYBIN A]
IC50 (dengue virus type 3 [3]): 18.5 µM

COc1cc(NC(C(=O)N2CCc3ccc(OC(F)(F)F)cc32)c2ccc(Cl)cc2)cc(OCCCC(=O)O)c1 (stereo not given)
Activity (dengue virus type 2 [4]): 90%
EC50 (dengue virus type 1): ≤ 0.001 µM
EC50 (dengue virus type 4 [5]): ≤ 0.006 µM
EC50 (dengue virus type 2 [1]): ≤ 0.004 µM
EC50 (dengue virus type 3 [6]): ≤ 0.001 µM

Fc1cc2cn[nH]c2cc1Nc1ccnc2ccc(Br)cc12
EC50 (dengue virus type 2 [7]): 2.3 µM
CC50 at 48 h [8]: > 10 µM

O=C(CCCCCCCCc1ccc(O)cc1)c1c(O)cc(O)cc1O
IC50 (Genome polyprotein [9]): 7.55 µM

Cc1ccc(O)c(NC(=O)CCc2ccccc2)c1
IC50 (dengue virus type 2 [10]): 1 µM

O=[N+]([O-])c1ccc(Nc2ccc3[nH]ncc3c2)nc1N1CCNCC1
IC50 (Nonstructural protein 3): 1.5 µM
IC50 (dengue virus type 4 [11]): 7.1 µM

O=c1c(O)c(-c2cc(O)c(O)c(O)c2)oc2cc(O)cc(O)c12 [MYRICETIN]
IC50 (Genome polyprotein [12]): 8.46 µM

O=C1NCc2ccc(Nc3ccnc4ccc(Br)cc34)cc21
EC50 (dengue virus type 2 [7]): 3.6 µM
CC50 at 48 h [8]: > 10 µM

CC1(C)Cc2sc(NC(=O)Cc3ccc(S(N)(=O)=O)cc3)c(C#N)c2CN1CC1CCCCC1
EC50 (dengue virus type 2 [13]): 0.023 µM

COc1cc(/C=C(\C#N)C(=O)c2ccc(O)c(O)c2)cc(I)c1O
EC50 (dengue virus type 2 [2]): 3 µM

C#COc1ccc(-c2cc(=O)c3c(O)cc(O)cc3o2)cc1
EC50 (dengue virus type 2 [14]): 7.81 µM

Cc1cc2c(F)c(Oc3ncnn4cc(OC[C@@H](C)O)c(C)c34)ccc2[nH]1 [BRIVANIB]
IC50 (dengue virus type 2 [15]): 2.5 µM

O=c1cc(-c2ccccc2)oc2cc(O)c(O)c(O)c12 [BAICALEIN]
IC50 (dengue virus type 3 [3]): 17.2 µM

COc1ccc2[nH]cc(CCNC(C)=O)c2c1 [MELATONIN]
CC50 at 24 h [16]: 3170 µM
IC50 (dengue virus type 2 [17]): 135 µM

CCCCCOc1ccc(-c2cc(-c3ccc(C(=O)N[C@H]4C[C@@H](O)[C@@H](O)NC(=O)[C@@H]5[C@@H](O)[C@@H](C)CN5C(=O)[C@H]([C@H](O)CC(N)=O)NC(=O)[C@H]([C@H](O)[C@@H](O)c5ccc(O)c(OS(=O)(=O)O)c5)NC(=O)[C@@H]5C[C@@H](O)CN5C(=O)[C@H]([C@@H](C)O)NC4=O)cc3)no2)cc1 [MICAFUNGIN] (X1-[Orn(4R-OH,5R-OH)]T[Hyp][hTyr(3S-OH,4S-OH,3'-OSO3H)][Gln(3R-OH)][Pro(3S-OH,4S-Me)]; lactam 1-C)
IC50 (dengue virus type 2 [18]): 10.2 µM
